Measurements taken from US10597388B2, “Pyridazinone herbicides” (FMC CORPORATION, priority 2014, dated 2020).
Read-outs that look alike come from different tables or passages of the source.

Assays:
Format in all cases: in vivo
[1] = tested on: barnyardgrass (Echinochloa crus-galli); assay: Test A greenhouse herbicide test, pre- and postemergence; conditions: for pest or weed control at 1000 g/ha: Echinochloa crus-galli, 240 h, 1000 g ai/ha
Description: (§1) Seeds of plant species selected from barnyardgrass (Echinochloa crus-galli), kochia (Kochia scoparia), ragweed (common ragweed, Ambrosia elatior), ryegrass, Italian (Italian ryegrass, Lolium multiflorum), crabgrass, large (large crabgrass, Digitaria sanguinalis), foxtail, giant (giant foxtail, Setaria faberii), momingglory (Ipomoea spp.), pigweed (Amaranthus retroflexus), velvetleaf (Abutilon theophrasti), wheat (Triticum aestivum), and corn (Zea mays) were planted into a blend of loam soil and sand and treated preemergence with a directed soil spray using test chemicals formulated in a non-phytotoxic solvent mixture which included a surfactant.
(§2) At the same time, plants selected from these crop and weed species and also blackgrass (Alopecurus myosuroides), and galium (catchweed bedstraw, Galium aparine) were planted in pots containing the same blend of loam soil and sand and treated with postemergence applications of test chemicals formulated in the same manner. Plants ranged in height from 2 to 10 cm and were in the one- to two-leaf stage for the postemergence treatment. Treated plants and untreated controls were maintained in a greenhouse for approximately 10 d, after which time all treated plants were compared to untreated controls and visually evaluated for injury. Plant response ratings, summarized in Table A, are based on a 0 to 100 scale where 0 is no effect and 100 is complete control. A dash (-) response means no test result.

corn (Zea mays) = assay: as above; conditions: Postemergence
Description: as §1, §2

[2] = tested on: foxtail, giant (giant foxtail, Setaria faberii); assay: as above; conditions: for pest or weed control at 1000 g/ha: Setaria faberi, 240 h, 1000 g ai/ha
Description: as §1, §2

kochia (Kochia scoparia) = assay: as above; conditions: for pest or weed control at 1000 g/ha: Bassia scoparia, 240 h, 1000 g ai/ha
Description: as §1, §2

[3] = tested on: pigweed (Amaranthus retroflexus); assay: as above; conditions: for pest or weed control at 1000 g/ha: Amaranthus retroflexus, 240 h, 1000 g ai/ha
Description: as §1, §2

[4] = tested on: ragweed (common ragweed, Ambrosia elatior); assay: as above; conditions: for pest or weed control at 1000 g/ha: Ambrosia artemisiifolia, 240 h, 1000 g ai/ha
Description: as §1, §2

[5] = tested on: ryegrass, Italian (Italian ryegrass, Lolium multiflorum); assay: as above; conditions: for pest or weed control at 1000 g/ha: Lolium multiflorum, 240 h, 1000 g ai/ha
Description: as §1, §2

[6] = tested on: wheat (Triticum aestivum); assay: as above; conditions: Postemergence
Description: as §1, §2

[7] = tested on: blackgrass (Alopecurus myosuroides); assay: Test A greenhouse herbicide test, postemergence
Summary of the method: (§3)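 Plants grown in loam soil/sand blend pots were treated postemergence at 2 to 10 cm height, one- to two-leaf stage, with formulated test chemicals. After approximately 10 d in a greenhouse, injury was rated visually against untreated controls on a 0 to 100 scale (0 no effect, 100 complete control).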

[8] = tested on: galium (catchweed bedstraw, Galium aparine); assay: Test A greenhouse herbicide test, postemergence
Summary of the method: as §3

[9] = tested on: barnyardgrass (Echinochloa crus-galli); assay: Test B flooded paddy test; conditions: 250 g ai/ha, Flood, visual rating on scale of 0 to 100 where 0 is no effect and 100 is complete control, 13 to 15 d after treatment
Summary of the method: (§4)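 Plants at the 2-leaf stage were flooded to 3 cm above soil, and test compounds were applied directly into the paddy water, which was held at that depth throughout. After 13 to 15 d in a greenhouse, injury was rated visually against untreated controls on a 0–100 scale (0 no effect, 100 complete control).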

[10] = tested on: ducksalad (Heteranthera limosa); assay: Test B flooded paddy test; conditions: 250 g ai/ha, Flood, visual rating on scale of 0 to 100 where 0 is no effect and 100 is complete control, 13 to 15 d after treatment
Summary of the method: as §4

rice (Oryza sativa) = assay: Test B flooded paddy test; conditions: 250 g ai/ha, Flood, visual rating on scale of 0 to 100 where 0 is no effect and 100 is complete control, 13 to 15 d after treatment
Summary of the method: as §4

[11] = tested on: sedge, umbrella (small-flower umbrella sedge, Cyperus difformis); assay: Test B flooded paddy test; conditions: 250 g ai/ha, Flood, visual rating on scale of 0 to 100 where 0 is no effect and 100 is complete control, 13 to 15 d after treatment
Summary of the method: as §4

[12] = Postemergence, 125 g ai/ha, 0 to 100 scale, 0 no effect, 100 complete control
[13] = Postemergence, 500 g ai/ha, visual rating after approx. 10 d, 0 to 100 scale (0 no effect, 100 complete control)
[14] = Preemergence, 125 g ai/ha, visual injury rating, 0 to 100 scale (0 no effect, 100 complete control), approx. 10 d
[15] = Preemergence, 500 g ai/ha, 0 to 100 scale where 0 is no effect and 100 is complete control
[16] = 125 g ai/ha, 0 to 100 scale, 0 no effect, 100 complete control
[17] = 500 g ai/ha, visual rating after approx. 10 d, 0 to 100 scale (0 no effect, 100 complete control)
[18] = Postemergence, 125 g ai/ha, 0 to 100 scale where 0 is no effect and 100 is complete control
[19] = Preemergence, 125 g ai/ha, 0 to 100 scale where 0 is no effect and 100 is complete control
[20] = 125 g ai/ha, 0 to 100 scale where 0 is no effect and 100 is complete control

## CCc1ccc2oc(C)c(-c3c(O)c(C)nn(C)c3=O)c2c1 [Compound 13, 4-(5-ethyl-2-methyl-3-benzofuranyl)-5-hydroxy-2,6-dimethyl-3(2H)-pyridazinone]
[1]; post-emergence, Postemergence, 0 to 100 scale, 0 is no effect, 100 is complete control, read-out: Barnyardgrass plant response rating
  pest or weed control at 1000 g/ha: 80%
[1]; pre-emergence, Preemergence, 0 to 100 scale, 0 no effect, 100 complete control, read-out: Plant response rating, Barnyardgrass
  pest or weed control at 1000 g/ha: 60%
Corn (Zea mays); Zea mays, post-emergence, 240 h, 1000 g ai/ha, 0 to 100 scale, 0 is no effect, 100 is complete control, read-out: Corn plant response rating
  plant injury at 1000 g/ha: 20%
[2]; post-emergence, Postemergence, 0 to 100 scale, 0 is no effect, 100 is complete control, read-out: Foxtail, Giant plant response rating
  pest or weed control at 1000 g/ha: 80%
[2]; pre-emergence, Preemergence, 0 to 100 scale, 0 no effect, 100 complete control, read-out: Plant response rating, Foxtail, Giant
  pest or weed control at 1000 g/ha: 50%
Kochia (Kochia scoparia); post-emergence, Postemergence, 0 to 100 scale, 0 is no effect, 100 is complete control, read-out: Kochia plant response rating
  pest or weed control at 1000 g/ha: 30%
Kochia (Kochia scoparia); pre-emergence, Preemergence, 0 to 100 scale, 0 no effect, 100 complete control, read-out: Plant response rating, Kochia
  pest or weed control at 1000 g/ha: 20%
[3]; post-emergence, Postemergence, 0 to 100 scale, 0 is no effect, 100 is complete control, read-out: Pigweed plant response rating
  pest or weed control at 1000 g/ha: 20%
[3]; pre-emergence, Preemergence, 0 to 100 scale, 0 no effect, 100 complete control, read-out: Plant response rating, Pigweed
  pest or weed control at 1000 g/ha: 0%
[4]; post-emergence, Postemergence, 0 to 100 scale, 0 is no effect, 100 is complete control, read-out: Ragweed plant response rating
  pest or weed control at 1000 g/ha: 30%
[4]; pre-emergence, Preemergence, 0 to 100 scale, 0 no effect, 100 complete control, read-out: Plant response rating, Ragweed
  pest or weed control at 1000 g/ha: 0%
[5]; post-emergence, Postemergence, 0 to 100 scale, 0 is no effect, 100 is complete control, read-out: Ryegrass, Italian plant response rating
  pest or weed control at 1000 g/ha: 70%
[5]; pre-emergence, Preemergence, 0 to 100 scale, 0 no effect, 100 complete control, read-out: Plant response rating, Ryegrass, Italian
  pest or weed control at 1000 g/ha: 60%
[6]; Triticum aestivum, post-emergence, 240 h, 1000 g ai/ha, 0 to 100 scale, 0 is no effect, 100 is complete control, read-out: Wheat plant response rating
  plant injury at 1000 g/ha: 20%
[7]; Alopecurus myosuroides, post-emergence, 240 h, 1000 g ai/ha, 0 to 100 scale, 0 is no effect, 100 is complete control, read-out: Blackgrass plant response rating
  pest or weed control at 1000 g/ha: 30%
[8]; Galium, post-emergence, 240 h, 1000 g ai/ha, 0 to 100 scale, 0 is no effect, 100 is complete control, read-out: Galium plant response rating
  pest or weed control at 1000 g/ha: 70%
[9]; Echinochloa crus-galli, 360 h, read-out: Plant response rating, Barnyardgrass
  pest or weed control at 250 g/ha: 0%
[10]; Heteranthera limosa, 360 h, read-out: Plant response rating, Ducksalad
  pest or weed control at 250 g/ha: 0%
Rice (Oryza sativa); Oryza sativa, 360 h, read-out: Plant response rating, Rice
  plant injury at 250 g/ha: 0%
[11]; Cyperus difformis, 360 h, read-out: Plant response rating, Sedge, Umbrella
  pest or weed control at 250 g/ha: 0%

## Cc1nn(C)c(=O)c(-c2c([N+](=O)[O-])ccc3ccccc23)c1OC(=O)C(C)(C)C [Compound 163]
[1]; [12]
  Plant response rating, Barnyardgrass: 0
[1]; [13]
  Plant response rating, Barnyardgrass: 0
[1]; [14]
  Plant response rating, Barnyardgrass: 0
[1]; [15]
  Plant response rating, Barnyardgrass: 0
Corn (Zea mays); [16]
  Plant response rating, Corn: 0
Corn (Zea mays); [17]
  Plant response rating, Corn: 0
[2]; [12]
  Plant response rating, Foxtail, Giant: 0
[2]; [13]
  Plant response rating, Foxtail, Giant: 0
[2]; [14]
  Plant response rating, Foxtail, Giant: 0
[2]; [15]
  Plant response rating, Foxtail, Giant: 0
Kochia (Kochia scoparia); [12]
  Plant response rating, Kochia: 0
Kochia (Kochia scoparia); [13]
  Plant response rating, Kochia: 20
Kochia (Kochia scoparia); [14]
  Plant response rating, Kochia: 0
Kochia (Kochia scoparia); [15]
  Plant response rating, Kochia: 0
[3]; [12]
  Plant response rating, Pigweed: 0
[3]; [13]
  Plant response rating, Pigweed: 20
[3]; [14]
  Plant response rating, Pigweed: 30
[3]; [15]
  Plant response rating, Pigweed: 70
[4]; [12]
  Plant response rating, Ragweed: 0
[4]; [13]
  Plant response rating, Ragweed: 0
[4]; [14]
  Plant response rating, Ragweed: 0
[4]; [15]
  Plant response rating, Ragweed: 0
[5]; [12]
  Plant response rating, Ryegrass, Italian: 20
[5]; [13]
  Plant response rating, Ryegrass, Italian: 70
[5]; [14]
  Plant response rating, Ryegrass, Italian: 10
[5]; [15]
  Plant response rating, Ryegrass, Italian: 50
[6]; [16]
  Plant response rating, Wheat: 0
[6]; [17]
  Plant response rating, Wheat: 0
[7]; [16]
  Plant response rating, Blackgrass: 0
[7]; [17]
  Plant response rating, Blackgrass: 20
[8]; [16]
  Plant response rating, Galium: 30
[8]; [17]
  Plant response rating, Galium: 60
[9]
  Plant response rating, Barnyardgrass: 0
[10]
  Plant response rating, Ducksalad: 0
Rice (Oryza sativa)
  Plant response rating, Rice: 0
[11]
  Plant response rating, Sedge, Umbrella: 0

## CCOC(=O)Oc1c(C)nn(C)c(=O)c1-c1c(C(F)(F)F)ccc2ccccc12 [Compound 146]
[1]; [18]
  Plant response rating, Barnyardgrass: 0
[1]; [13]
  Plant response rating, Barnyardgrass: 30
[1]; [19]
  Barnyardgrass plant response rating: 0
[1]; [15]
  Plant response rating, Barnyardgrass: 50
Corn (Zea mays); [20]
  Plant response rating, Corn: 0
Corn (Zea mays); [17]
  Plant response rating, Corn: 30
[2]; [18]
  Plant response rating, Foxtail, Giant: 10
[2]; [13]
  Plant response rating, Foxtail, Giant: 70
[2]; [19]
  Foxtail, Giant plant response rating: 0
[2]; [15]
  Plant response rating, Foxtail, Giant: 50
Kochia (Kochia scoparia); [18]
  Plant response rating, Kochia: 70
Kochia (Kochia scoparia); [13]
  Plant response rating, Kochia: 100
Kochia (Kochia scoparia); [19]
  Kochia plant response rating: 20
Kochia (Kochia scoparia); [15]
  Plant response rating, Kochia: 70
[3]; [18]
  Plant response rating, Pigweed: 90
[3]; [13]
  Plant response rating, Pigweed: 90
[3]; [19]
  Pigweed plant response rating: 100
[3]; [15]
  Plant response rating, Pigweed: 100
[4]; [18]
  Plant response rating, Ragweed: 90
[4]; [13]
  Plant response rating, Ragweed: 100
[4]; [15]
  Plant response rating, Ragweed: 80
[5]; [18]
  Plant response rating, Ryegrass, Italian: 70
[5]; [13]
  Plant response rating, Ryegrass, Italian: 100
[5]; [15]
  Plant response rating, Ryegrass, Italian: 80
[6]; [20]
  Plant response rating, Wheat: 0
[6]; [17]
  Plant response rating, Wheat: 70
[7]; [20]
  Plant response rating, Blackgrass: 20
[7]; [17]
  Plant response rating, Blackgrass: 70
[8]; [20]
  Plant response rating, Galium: 80
[8]; [17]
  Plant response rating, Galium: 90
[9]
  Plant response rating, Barnyardgrass: 0
[10]
  Plant response rating, Ducksalad: 0
Rice (Oryza sativa)
  Plant response rating, Rice: 0
[11]
  Plant response rating, Sedge, Umbrella: 0
